Data taken from paper PMC7525318, “Identification of Six Flavonoids as Novel Cellular Antioxidants and Their Structure-Activity Relationship” (Oxidative Medicine and Cellular Longevity, 2020).

Assays:
[1] = DPPH radical scavenging activity; conditions: 0.1 mM DPPH in methanol, 37°C, 30 min
Procedure: This assay was conducted as previously described by Wen et al. with some modifications. DPPH was freshly prepared in methanol at a concentration of 0.1 mM. The solution (20 μL) containing the tested compounds with different concentrations was added into the DPPH solution (180 μL) in the 96-well plates. […] The IC50 value was calculated on the scavenging activity against DPPH radical.

[2] = Oxygen radical antioxidant capacity (ORAC) assay; conditions: Trolox equivalents; AAPH, fluorescein
Procedure: The ORAC assay was evaluated as previously described by Cao et al. with some modifications. 50 μL of samples or Trolox with different concentrations and the fluorescein solution was added to a 96-well microplate, which was incubated at 37°C for 10 min. […] The ORAC values were calculated by the regression equation between the Trolox concentration and the net area under the curve (expressed as μmol Trolox eq/μmol sample).

HepG2 cells = assay: Cellular antioxidant activity (CAA) assay; type: cell-based; conditions: DCFH-DA 25 μM, ABAP 600 μM
Procedure: The CAA assay was tested as described previously. 6 × 10^4 cells/well of HepG2 cells were seeded at a 96-well microplate with 100 μL of growth medium/well. […] Then, the cells were washed with PBS and treated with 100 μL of 600 μM ABAP (dissolved in HBSS), and the 96-well microplate was immediately placed into an Infinite SpectraMax i3x Multi-Mode Detection plate-reader at 37°C. […]

| Compound | IC50 [1] [µM] | ORAC values [2] [μmol TE/μmol] | EC50 (HepG2 cells; Homo sapiens) [µM] | EC50 (HepG2 cells) [µM] |
| --- | --- | --- | --- | --- |
| Oc1cc(O)c2cc(O)c(-c3ccc(O)c(O)c3)[o+]c2c1 [compound 51, Cyanidin chloride] | 70.8 ± 2.31 | 5.71 ± 0.03 | 19.16 ± 0.16 | – |
| O=c1c(O)c(-c2ccccc2)oc2cc(O)cc(O)c12 [compound 34, Galangin] | > 200 | – | 31.2 ± 0.86 | – |
| O=C1C[C@@H](c2ccc(O)cc2)Oc2cc(O)cc(O)c21 [compound 45, Naringenin] | > 200 | 4.62 ± 0.13 | > 200 | – |
| O=c1c(O[C@@H]2O[C@H](CO)[C@H](O)[C@H](O)[C@H]2O)c(-c2ccc(O)cc2)oc2cc(O)cc(O)c12 [compound 11, Trifolin] | 45.1 ± 2.12 | 2.06 ± 0.01 | > 200 | – |
| COc1ccc([C@@H]2CC(=O)c3c(O)cc(O)cc3O2)cc1O [compound 43, Hesperetin] | > 200 | – | > 200 | – |
| OCC1OC(Oc2cc3c(OC4OC(CO)C(O)C(O)C4O)cc(O)cc3[o+]c2-c2ccc(O)c(O)c2)C(O)C(O)C1O (stereo not shown) [compound 53, Cyanin chloride] | > 200 | – | > 200 | – |
| Myricitrin [compound 9] | 50.9 ± 2.14 | – | – | > 200 |
| COc1ccc(-c2cc(=O)c3c(O)cc(O)cc3o2)cc1O [compound 36, Diosmetin] | > 200 | 5.02 ± 0.14 | > 200 | – |
| COc1ccc(CCC(=O)c2c(O)cc(O[C@@H]3O[C@H](CO)[C@@H](O)[C@H](O)[C@H]3O[C@@H]3O[C@@H](C)[C@H](O)[C@@H](O)[C@H]3O)cc2O)cc1O [compound 47, Neohesperidin dihydrochalcone] | > 200 | 4.31 ± 0.01 | > 200 | – |
| COc1ccc([C@@H]2CC(=O)c3c(O)cc(O[C@@H]4O[C@H](CO[C@@H]5O[C@@H](C)[C@H](O)[C@@H](O)[C@H]5O)[C@@H](O)[C@H](O)[C@H]4O)cc3O2)cc1O [compound 44, Hesperidin] | > 200 | 6.52 ± 0.15 | – | > 200 |
| O=c1c(O)c(-c2ccc(O)cc2)oc2cc(O)cc(O)c12 [compound 6, Kaempferol] | > 200 | 4.17 ± 0.06 | 11 ± 0.25 | – |
| O=c1cc(-c2ccc(O)c(O)c2)oc2cc(O)cc(O)c12 [compound 23, Luteolin] | 73.2 ± 0.75 | 4.27 ± 0.02 | 18.6 ± 0.61 | – |
| O=c1cc(-c2ccc(O)c(O)c2)oc2c([C@@H]3O[C@H](CO)[C@@H](O)[C@H](O)[C@H]3O)c(O)cc(O)c12 [compound 31, Orientin] | > 200 | – | > 200 | – |
| C[C@@H]1O[C@@H](Oc2c(-c3ccc(O)c(O)c3)oc3cc(O)cc(O)c3c2=O)[C@H](O)[C@H](O)[C@H]1O [compound 28, Quercitrin] | 68.3 ± 1.37 | – | > 200 | – |
| COc1cc(-c2[o+]c3cc(O)cc(OC4OC(CO)C(O)C(O)C4O)c3cc2OC2OC(CO)C(O)C(O)C2O)cc(OC)c1O (stereo not shown) [compound 57, Malvin] | > 200 | 4.32 ± 0.19 | > 200 | – |
| O=c1c(OC2OC(CO)C(O)C(O)C2O)c(-c2cc(O)c(O)c(O)c2)oc2cc(O)cc(O)c12 (stereo not shown) [compound 25, Myricetin-3-O-galactoside] | 82.4 ± 2.88 | – | > 200 | – |
| O=C1c2c(O)cc(O)cc2O[C@H](c2cc(O)c(O)c(O)c2)[C@H]1O [compound 38, Dihydromyricetin] | > 200 | 5.25 ± 0.02 | > 200 | – |
| OCC1OC(Oc2cc3c(OC4OC(CO)C(O)C(O)C4O)cc(O)cc3[o+]c2-c2ccc(O)cc2)C(O)C(O)C1O (stereo not shown) [compound 55, Pelargonin chloride] | > 200 | – | > 200 | – |
| O=C1c2c(O)cc(O)cc2OC(c2ccc(O)c(O)c2)C1O (stereo not shown) [compound 39, Taxifolin] | 59.6 ± 3.12 | 5.26 ± 0.04 | > 200 | – |
| COc1cc(-c2oc3cc(O)cc(O)c3c(=O)c2O)ccc1O [compound 1, Isorhamnetin] | 126 ± 4.26 | – | 23.3 ± 1.38 | – |

| Compound | IC50 [1] [µM] | ORAC values [2] [μmol TE/μmol] | EC50 (HepG2 cells; Homo sapiens) [µM] | EC50 (HepG2 cells) [µM] |
| --- | --- | --- | --- | --- |
| COc1ccc([C@@H]2CC(=O)c3c(O)cc(O[C@@H]4O[C@H](CO)[C@@H](O)[C@H](O)[C@H]4O[C@@H]4O[C@@H](C)[C@H](O)[C@@H](O)[C@H]4O)cc3O2)cc1O [compound 41, Neohesperidin] | > 200 | – | – | > 200 |
| O=C(/C=C/c1ccc(O)cc1)c1ccc(O)cc1O [compound 50, Isoliquiritigenin] | – | – | > 200 | – |
| O=c1c(O[C@@H]2O[C@H](CO)[C@@H](O)[C@H](O)[C@H]2O)c(-c2ccc(O)c(O)c2)oc2cc(O)cc(O)c12 [compound 29, Isoquercitrin] | > 200 | – | > 200 | – |
| O=c1cc(-c2ccccc2)oc2cc(O)c(O)c(O)c12 [compound 21, Baicalein] | > 200 | – | 42.5 ± 0.24 | – |
| COc1cc(-c2[o+]c3cc(O)cc(O)c3cc2O[C@@H]2O[C@H](CO)[C@@H](O)[C@H](O)[C@H]2O)cc(OC)c1O.[Cl-] [compound 56, Oenin chloride] | > 200 | 4.78 ± 0.15 | – | > 200 |
| O=C(CCc1ccc(O)cc1)c1c(O)cc(O)cc1O[C@@H]1O[C@H](CO)[C@@H](O)[C@H](O)[C@H]1O [compound 49, Phlorizin] | > 200 | 6.43 ± 0.14 | > 200 | – |
| O=c1cc(-c2ccc(O)cc2)oc2cc(O)cc(O)c12 [compound 22, Apigenin] | > 200 | 4.27 ± 0.02 | > 200 | – |
| O=c1c(O)c(-c2ccc(OC3O[C@H](CO)[C@@H](O)[C@H](O)[C@H]3O)cc2)oc2cc(O)cc(O)c12 (stereo partly shown) [compound 12, Kaempferol-4′-O-glucopyranoside] | > 200 | – | > 200 | – |
| Oc1cc(O)c2c(c1)O[C@H](c1ccc(O)c(O)c1)[C@H](O)C2 [compound 58, Epicatechin] | 96.03 ± 0.13 | 4.83 ± 0.13 | > 200 | – |
| O=c1c(O)c(-c2ccc(O[C@@H]3O[C@H](CO)[C@@H](O)[C@H](O)[C@H]3O)c(O)c2)oc2cc(O)cc(O)c12 [compound 17, Spiraeoside] | > 200 | – | > 200 | – |
| COc1ccc(-c2cc(=O)c3c(OC)c(OC)c(OC)c(OC)c3o2)cc1 [compound 19, Tangeretin] | > 200 | – | > 200 | – |
| O=C(CCc1ccc(O)cc1)c1c(O)cc(O)cc1O [compound 48, Phloretin] | > 200 | – | 30.96 ± 0.2 | – |
| O=c1cc(-c2ccccc2)oc2cc(O)cc(O)c12 [compound 20, Chrysin] | > 200 | – | > 200 | – |
| COc1cc(O)c2c(=O)cc(-c3ccc(O)cc3)oc2c1 [compound 37, Genkwanin] | > 200 | – | > 200 | – |
| COc1ccc(-c2oc3cc(O)cc(O)c3c(=O)c2O)cc1 [compound 3, Kaempferide] | > 200 | – | > 30 | – |
| C[C@@H]1O[C@@H](OC[C@H]2O[C@@H](Oc3cc(O)c4c(c3)O[C@H](c3ccc(O)cc3)CC4=O)[C@H](O)[C@@H](O)[C@@H]2O)[C@H](O)[C@H](O)[C@H]1O [compound 42, Narirutin] | > 200 | – | > 200 | – |
| O=c1cc(-c2ccc(O)cc2)oc2cc(O)c([C@@H]3O[C@H](CO)[C@@H](O)[C@H](O)[C@H]3O)c(O)c12 [compound 33, Isovitexin] | > 200 | – | > 200 | – |
| Quercetin-3-O-rhamnoside [compound 27] | 47.7 | – | – | 22.8 |
| O=C1C[C@@H](c2ccc(O)cc2)Oc2cc(O)ccc21 [compound 46, Liquiritigenin] | > 200 | – | > 200 | – |
| C[C@@H]1O[C@@H](OC[C@H]2O[C@@H](Oc3c(-c4ccc(O)c(O)c4)oc4cc(O)cc(O)c4c3=O)[C@H](O)[C@@H](O)[C@@H]2O)[C@H](O)[C@H](O)[C@H]1O [compound 16, Rutin] | 70 ± 1.44 | – | > 200 | – |
